Structures can show the parent of a compound that is named as a salt. Where two headings read alike, the source gives them in different places.
How the values were obtained:
[1] = biological target: T1, human recombinant Met kinase (Homo sapiens, UniProt P08581); experiment: Colorimetric determination of c-Met kinase activity (HTScan Met Kinase Assay Kit); assay type: biochemical; details: for inhibition at 0.1 µM: 100 nM (cells without *), read-out: c-Met Enzyme % inhibition @ 100 nM; for inhibition: cells marked *: tested @ 300 nM, read-out: c-Met Enzyme % inhibition
T1 construct: purchased Cell Signalling Technology, Beverly, Mass
Excerpt: 1. MET Kinase Assay Protocol:
Colorimetric Determination of c-Met Kinase Activity
The receptor tyrosine kinase c-Met is a heterodimeric transmembrane glycoprotein involved in several cellular processes that aid in tumor progression. Phosphorylation of the tyrosine residues in the c-Met kinase domain is critical for its activity and the resulting down-stream effects. The colorimetric assay allows detection of the phosphorylated form of a biotinylated peptide upon activation of human recombinant Met kinase.
MET Kinase Assay Protocol:
c-Met Kinase activity shall be determined using an HTScan® Met Kinase Assay Kit (Cell Signalling Technology, Beverly, Mass.) with modifications. All incubations are carried out at room temperature. Briefly, 12.5 μl of a 4× reaction cocktail (DTT/Kinase buffer containing appropriate quantity of human Met kinase) is added to each well of a 96-well plate containing 12.5 μl pre-diluted compound of interest and incubated for 5 minutes. After the initial incubation, 25 μl/well of 2×ATP/biotinylated peptide is added and incubated for an additional 30 minutes. The reaction is terminated by the addition of 50 μl/well stop buffer (50 mM EDTA, pH 8.0). The reaction mixture (25 μl/well) is then transferred to a streptavidin coated plate (Perkin Elmer, Cat#4009-0010) containing 75 μl dH2O and incubated for 60 minutes. The plate is washed with 200 μl/well wash buffer (1×PBS, 0.05% Tween-20). After washing, 100 μl/well phospho-tyrosine mAb (1:1000 in wash buffer containing 1% BSA) is added and incubated for 60 minutes. After another round of washes, 100 μl/well europium labelled anti-mouse IgG (1:500 in wash buffer containing 1% BSA) is added and incubated for an additional 30 minutes. Following additional washes, 100 μl/well Delfia^(R) enhancement solution (Perkin Elmer, Cat#1244-105) is added and incubated for 45 minutes. Florescence is measured on a microplate reader (BMG Labtech., Germany) at 340 nm (excitation) and 615 nm (emission) for calculating % inhibition. Data generated can be analyzed further using Graphpad Prism (Graphpad software, San Diego Calif.) for determination of IC50.
Results: The results are as given below in Table 4A, 4B and 4C as % Inhibition or IC50 of c-Met

MKN-45 = experiment: Inhibition of MKN-45 proliferation (MTT); assay type: cell-based, human; details: MKN-45 proliferation; for GI50: read-out: MKN45 GI50
Method: 3. Inhibition of MKN-45 Proliferation:
Cell proliferation assays were carried out using the high Met expressing human gastric adenocarcinoma cell line, MKN-45, according to the following schedule: • Day 1: Cells were plated in 96-well plates in complete growth medium. • Day 2: Compounds at desired concentrations were added. • Day 5: Cell viability was determined using the 3-[4,5-dimethylthiazol-2-yl]-2,5-diphenyltetrazolium bromide (MTT) dye reduction test. Results: The results are as given as % Inhibition of MKN-45 proliferation at 100 nM and GI50 values in Table 4A to 4C above. 4. Inhibition of c-Met Kinase Phosphorylation in MKN-45 Cells: […]

T1 sequence (P08581 25-1390): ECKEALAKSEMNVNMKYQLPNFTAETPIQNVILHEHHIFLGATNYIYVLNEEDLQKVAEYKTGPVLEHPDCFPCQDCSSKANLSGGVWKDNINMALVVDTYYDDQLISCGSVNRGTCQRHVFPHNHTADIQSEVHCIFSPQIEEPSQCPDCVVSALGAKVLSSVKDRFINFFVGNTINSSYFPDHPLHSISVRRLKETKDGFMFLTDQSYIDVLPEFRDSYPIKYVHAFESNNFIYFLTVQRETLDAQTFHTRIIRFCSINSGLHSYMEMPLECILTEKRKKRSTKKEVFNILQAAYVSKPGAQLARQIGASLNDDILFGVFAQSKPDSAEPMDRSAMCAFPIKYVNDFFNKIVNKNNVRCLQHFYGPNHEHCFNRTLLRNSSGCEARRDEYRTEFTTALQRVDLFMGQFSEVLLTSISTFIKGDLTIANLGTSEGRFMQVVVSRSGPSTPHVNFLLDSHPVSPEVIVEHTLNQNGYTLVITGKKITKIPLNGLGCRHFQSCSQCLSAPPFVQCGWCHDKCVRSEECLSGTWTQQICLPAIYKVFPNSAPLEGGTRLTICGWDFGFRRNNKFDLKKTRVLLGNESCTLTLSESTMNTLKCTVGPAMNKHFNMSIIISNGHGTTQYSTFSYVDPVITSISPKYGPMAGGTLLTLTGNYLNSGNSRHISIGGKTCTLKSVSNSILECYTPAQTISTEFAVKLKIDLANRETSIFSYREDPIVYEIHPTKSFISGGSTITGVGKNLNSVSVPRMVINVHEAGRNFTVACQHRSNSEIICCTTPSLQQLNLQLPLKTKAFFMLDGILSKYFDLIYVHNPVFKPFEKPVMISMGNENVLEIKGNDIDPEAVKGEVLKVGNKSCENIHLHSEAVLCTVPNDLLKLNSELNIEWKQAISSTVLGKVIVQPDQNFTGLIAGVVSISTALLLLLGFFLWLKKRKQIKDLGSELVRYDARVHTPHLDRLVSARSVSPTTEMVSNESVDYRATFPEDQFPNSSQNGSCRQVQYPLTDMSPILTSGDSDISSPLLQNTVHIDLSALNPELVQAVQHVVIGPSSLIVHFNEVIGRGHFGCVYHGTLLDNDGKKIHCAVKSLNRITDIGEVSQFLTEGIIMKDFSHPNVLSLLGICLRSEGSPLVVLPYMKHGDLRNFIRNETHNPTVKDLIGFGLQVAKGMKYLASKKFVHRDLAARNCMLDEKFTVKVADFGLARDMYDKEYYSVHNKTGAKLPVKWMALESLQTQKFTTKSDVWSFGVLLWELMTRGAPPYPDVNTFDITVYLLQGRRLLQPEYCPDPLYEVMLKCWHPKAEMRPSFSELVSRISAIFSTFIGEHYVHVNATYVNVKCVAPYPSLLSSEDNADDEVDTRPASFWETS

## Cc1cc(-c2ccc3nnn(Cc4ccc5[nH]c(=O)ccc5c4)c3n2)ccc1C(=O)NOCCO [Example 25d, N-(2-hydroxyethoxy)-2-methyl-4-(3-((2-oxo-1,2-dihydroquinolin-6-yl)methyl)-3H-[1,2,3]triazolo[4,5-b]pyridin-5-yl) benzamide]
[1]; Table 4A
  inhibition at 0.1 µM: < 25%

## Cc1cc(-c2ccc3nnn(Cc4ccc5ncccc5c4)c3n2)ccc1C(=O)NOCCOC(=O)C(C)(C)C [Example 45, 2-(2-methyl-4-(3-(quinolin-6-ylmethyl)-3H-[1,2,3]triazolo[4,5-b]pyridin-5-yl)benzamidooxy)ethyl pivalate]
[1]; Table 4A
  inhibition at 0.1 µM: 75 to 100%

## Cc1cc(-c2ccc3nnn(Cc4ccc5ncccc5c4)c3n2)ccc1C(=O)NOCCOC(=O)C(C)C [Example 44, 2-(2-methyl-4-(3-(quinolin-6-ylmethyl)-3H-[1,2,3]triazolo[4,5-b]pyridin-5-yl)benzamidooxy)ethyl isobutyrate]
[1]; Table 4A
  inhibition at 0.1 µM: 75 to 100%

## Cc1cc(-c2ccc3nnn(Cc4ccc5ncccc5c4)c3n2)ccc1C(=O)NO [Example 42, N-Hydroxy-2-methyl-4-(3-quinolin-6-ylmethyl-3H-[1,2,3]triazolo[4,5-b]pyridin-5-yl)-benzamide]
[1]; Table 4A
  inhibition at 0.1 µM: 75 to 100%

## Cc1cc(-c2ccc3nnn(Cc4ccc5[nH]c(=O)ccc5c4)c3n2)ccc1C(=O)NOCC(C)(C)O [Example 37, N-(2-hydroxy-2-methylpropoxy)-2-methyl-4-(3-((2-oxo-1,2-dihydroquinolin-6-yl)methyl)-3H-[1,2,3]triazolo[4,5-b]pyridin-5-yl)benzamide]
[1]; Table 4A
  inhibition at 0.1 µM: 50 to 75%

## NC(=O)c1ccc(-c2ccc3nnn(Cc4cc5ccc[n+]([O-])c5cc4F)c3n2)cc1Cl [Example 1002]
[1]; Table 4C
  inhibition at 0.1 µM: < 25%

## NC(=O)N/N=C(\N)c1ccc2nnn(Cc3ccc4ncccc4c3)c2n1 [Example 52, 2-(amino(3-(quinolin-6-ylmethyl)-3H-[1,2,3]triazolo[4,5-b]pyridin-5-yl)methylene)hydrazinecarboxamide]
[1]; Table 4A
  inhibition: < 25%

## CN(C)CCNC(=O)c1ccc(-c2ccc3ncn(Cc4ccc5ncccc5c4)c3n2)cc1Cl [Example 101, 2-chloro-N-(2-(dimethylamino)ethyl)-4-(3-(quinolin-6-ylmethyl)-3H-imidazo[4,5-b]pyridin-5-yl)benzamide]
[1]; Table 4B
  inhibition: < 25%

## O=C1NCc2cc(-c3ccc4nnn(Cc5ccc6ncccc6c5)c4n3)ccc21 [Example 1032, 5-(3-Quinolin-6-ylmethyl-3H-[1,2,3]triazolo[4,5-b]pyridin-5-yl)-2,3-dihydro-isoindol-1-one]
[1]; Table 4C
  inhibition at 0.1 µM: 75 to 100%

## Cc1cc(-c2ccc3nnn(Cc4ccc5ncccc5c4)c3n2)ccc1C(=O)NOCCOC(=O)c1ccco1 [Example 47, 2-(2-methyl-4-(3-(quinolin-6-ylmethyl)-3H-[1,2,3]triazolo[4,5-b]pyridin-5-yl)benzamidooxy)ethyl furan-2-carboxylate]
[1]; Table 4A
  inhibition at 0.1 µM: 75 to 100%

## CCNC(=O)c1ccc(-c2ccc3ncn(Cc4ccc5ncccc5c4)c3n2)cc1Cl [Example 1013, 2-chloro-N-ethyl-4-(3-(quinolin-6-ylmethyl)-3H-imidazo[4,5-b]pyridin-5-yl)benzamide]
[1]; Table 4C
  inhibition: < 25%

## C/C(=N\N1CC(=O)NC1=O)c1ccc2nnn(Cc3ccc4ncccc4c3)c2n1 [Example 54, (E/Z)-1-(1-(3-(quinolin-6-ylmethyl)-3H-[1,2,3]triazolo[4,5-b]pyridin-5-yl)ethylideneamino)imidazolidine-2,4-dione]
[1]; Table 4A
  inhibition: 25 to 50%

## Cl.O=C(NOCCO)c1c(F)cc(-c2ccc3nnn(Cc4ccc5ncccc5c4)c3n2)cc1F [Example 8a, 2,6-difluoro-N-(2-hydroxyethoxy)-4-(3-(quinolin-6-ylmethyl)-3H-[1,2,3]triazolo[4,5-b]pyridin-5-yl)benzamide hydrochloride]
MKN-45; Table 4A
  MKN45 % inhibition @ 100 nM: C (C = ≧25-<50%)

## Cc1cc(-c2ccc3nnn(Cc4ccc5ncccc5c4)c3n2)ccc1C(=O)NOCCO [Example 25a, N-(2-hydroxyethoxy)-2-methyl-4-(3-(quinolin-6-ylmethyl)-3H-[1,2,3]triazolo[4,5-b]pyridin-5-yl)benzamide hydrochloride]
MKN-45; Table 4A, hydrochloride, 0.1 µM
  MKN45 % inhibition @ 100 nM: B (B = ≧50-<75%)

## NC(=O)c1c(F)cc(-c2ccc3nnn(Cc4ccc5[nH]c(=O)ccc5c4)c3n2)cc1F [Example 1005, 2,6-difluoro-4-(3-((2-oxo-1,2-dihydroquinolin-6-yl)methyl)-3H-[1,2,3]triazolo[4,5-b]pyridin-5-yl)benzamide]
[1]; Table 4C
  inhibition at 0.1 µM: < 25%

## Cl.O=C(NOCCO)c1c(F)cc(-c2ccc3nnn(Cc4cc5cccnc5cc4F)c3n2)cc1F [Example 9a, 2,6-difluoro-4-(3-((7-fluoroquinolin-6-yl)methyl)-3H-[1,2,3]triazolo[4,5-b]pyridin-5-yl)-N-(2-hydroxyethoxy)benzamide hydrochloride]
MKN-45; Table 4A
  MKN45 % inhibition @ 100 nM: A (A= ≧75 to 100%)
MKN-45; Table 4A, hydrochloride
  GI50: 0.025 to 0.05 µM

## Cc1cc(-c2ccc3nnn(Cc4ccc5ncccc5c4)c3n2)ccc1C(=O)NOCCOC(=O)c1ccccc1 [Example 46, 2-(2-methyl-4-(3-(quinolin-6-ylmethyl)-3H-[1,2,3]triazolo[4,5-b]pyridin-5-yl)benzamidooxy)ethyl benzoate]
[1]; Table 4A
  inhibition at 0.1 µM: 75 to 100%

## CN(C)CCCNC(=O)c1ccc(-c2ccc3nnn(Cc4ccc5ncccc5c4)c3n2)cc1 [Example 68, N-(3-Dimethylamino-propyl)-4-(3-quinolin-6-ylmethyl-3H-[1,2,3]triazolo[4,5-b]pyridin-5-yl)-benzamide dihydrochloride]
[1]; Table 4A
  inhibition at 0.1 µM: 75 to 100%

## CNC(=O)CNC(=O)c1ccc(-c2ccc3nnn(Cc4ccc5ncccc5c4)c3n2)cc1 [Example 2, N-(2-(methylamino)-2-oxoethyl)-4-(3-(quinolin-6-ylmethyl)-3H-[1,2,3]triazolo[4,5-b]pyridin-5-yl)benzamide]
MKN-45; Homo sapiens, MKN-45, Table 4A
  GI50: 0.1 to 0.25 µM

## NC(=O)c1c(F)cc(-c2ccc3ncn(Cc4ccc5ncccc5c4)c3n2)cc1F [Example 1010, 2,6-difluoro-4-(3-(quinolin-6-ylmethyl)-3H-imidazo[4,5-b]pyridin-5-yl) benzamide]
[1]; Table 4C
  inhibition: < 25%

## O=C(NOCCO)c1ccc(-c2ccc3ncn(Cc4ccc5ncccc5c4)c3n2)cc1Cl [Example 113, 2-Chloro-N-(2-hydroxy-ethoxy)-4-(3-quinolin-6-ylmethyl-3H-imidazo[4,5-b]pyridin-5-yl)-benzamide]
[1]; Table 4B
  inhibition at 0.1 µM: 75 to 100%

## NC(=O)c1ccc(-c2ccc3nnn(Cc4ccc5[nH]c(=O)ccc5c4)c3n2)cc1Cl [Example 1004, 2-chloro-4-(3-((2-oxo-1,2-dihydroquinolin-6-yl)methyl)-3H-[1,2,3]triazolo[4,5-b]pyridin-5-yl)benzamide]
[1]; Table 4C
  inhibition: < 25%

## CC(C)(O)CONC(=O)c1ccc(-c2ccc3ncn(Cc4ccc5ncccc5c4)c3n2)cc1Cl [Example 114, 2-Chloro-N-(2-hydroxy-2-methyl-propoxy)-4-(3-quinolin-6-ylmethyl-3H-imidazo[4,5-b]pyridin-5-yl)-benzamide]
[1]; Table 4B
  inhibition at 0.1 µM: 75 to 100%

## CCNC(=S)N/N=C(\C)c1ccc2nnn(Cc3ccc4ncccc4c3)c2n1 [Example 55, N-ethyl-2-(1-(3-(quinolin-6-ylmethyl)-3H-[1,2,3]triazolo[4,5-b]pyridin-5-yl)ethylidene)hydrazinecarbothioamide]
[1]; Table 4A
  inhibition: < 25%

## Cl.O=C(NOCCO)c1ccc(-c2ccc3nnn(Cc4cc5cccnc5cc4F)c3n2)cc1Cl [Example 7a, 2-chloro-4-(3-((7-fluoroquinolin-6-yl)methyl)-3H-[1,2,3]triazolo[4,5-b]pyridin-5-yl)-N-(2-hydroxyethoxy)benzamide hydrochloride]
MKN-45; Table 4A
  MKN45 % inhibition @ 100 nM: A (A= ≧75 to 100%)
